Measurements as given in patent publication US20120255051A1, “HERBICIDE TOLERANT PLANTS” (priority 2009, published 2012).
Several values for one entry are separate records, joined by “and”; a condition that tells them apart may be missing. Equal entries are not always repeated.

Tests used:
Assay type in all cases: in vivo, Brassica napus
[1] = system: Brassica plants comprising mutant AHAS alleles; experiment: Greenhouse pre-planting application (20 g a.i./ha): vigor scores; conditions: for vigor score Av, pre-planting (2, 3 and 4 weeks after treatment): 20 g a.i./ha
Experimental: (§1) In another experiment, the effect of combining AHAS full knockouts with AHAS missense herbicide tolerant alleles on tolerance to thiencarbazone-methyl pre-planting application and thiencarbazone-methyl post-emergence spraying was tested in the greenhouse. To this end, the Brassica plants identified in Example 1 and 2 were backcrossed two times with an elite parent line, and subsequently selfed twice to obtain homozygous plants (BC2S2). Treatment pre-planting was carried out on the soil just after sowing with a dose of 20 g a.i./ha of thiencarbazone methyl. For assessment of vigor scores, plants were evaluated on a scale of 1 to 9, where 1=dead, 3=poor, 6=some aberrant phenotype and 9=vigorous. The vigor scores are an average of the scores taken at 2, 3 and 4 weeks after treatment. Treatment post-emergence at the first leaf stage was carried out with a dose of 10 g a.i./ha of thiencarbazone-methyl. The vigor scores are an average of the scores taken 1, 2 and 3 weeks after the treatment. The average values (Av) and standard deviations (SD) of the vigor scores are represented in Table 6.

[2] = system: Brassica plants comprising mutant AHAS alleles; experiment: Greenhouse post-emergence spraying (10 g a.i./ha): vigor scores; conditions: for vigor score Av, post-emergence (1, 2 and 3 weeks after treatment): 10 g a.i./ha
Experimental: as §1

[3] = system: Brassica plants comprising mutant AHAS alleles; experiment: Field trial, post-emergence treatment (0, 10, 20 g a.i./ha), location A: PPTOX and VIG1 scores; conditions: for vigor1 (VIG1) score, Av: 7 days after spray
Experimental: The correlation between the presence of full knockout and missense AHAS genes in Brassica plants on plant growth and herbicide tolerance of the Brassica plants in the field on location A was also tested upon post-emergence herbicide treatment. The field setup was the same as for the pre-planting field trial. Post-emergence treatment was carried out on the 2-4 leaf stage with a rate of 0 (treatment A), 10 (treatment B), 20 (treatment C) g a.i./ha of thiencarbazone methyl. The phytotoxicity (PPTOX) and vigor1 (VIG1; vigor scores 7 days after herbicide spray) were determined as described above. The average values (Av) and standard deviations (SD) of the scores for the different parameters are represented in Table 9.

[4] = AHAS1 +/+, AHAS3 +/+ (HETO108+HETO104 series)
[5] = AHAS1 +/+, AHAS3 +/+ (HETO108+HETO111 series)
[6] = AHAS1 +/+, AHAS3 +/+ (HETO112+HETO111 series)
[7] = AHAS1 +/+, AHAS3 HETO104/HETO104
[8] = AHAS1 +/+, AHAS3 HETO111/HETO111 (HETO108+HETO111 series)
[9] = AHAS1 +/+, AHAS3 HETO111/HETO111 (HETO112+HETO111 series)
[10] = AHAS1 HETO108/HETO108, AHAS3 +/+ (HETO108+HETO104 series)
[11] = AHAS1 HETO108/HETO108, AHAS3 +/+ (HETO108+HETO111 series)
[12] = AHAS1 HETO108/HETO108, AHAS3 HETO104/HETO104
[13] = AHAS1 HETO108/HETO108, AHAS3 HETO111/HETO111
[14] = AHAS1 HETO112/HETO112, AHAS3 +/+
[15] = AHAS1 HETO112/HETO112, AHAS3 HETO111/HETO111
[16] = Elite parent line plants, 10 g a.i./ha (treatment B) post-emergence
[17] = Elite parent line plants, 20 g a.i./ha (treatment C) post-emergence
[18] = plants AHAS1 HETO108 / AHAS3 HETO104, 10 g a.i./ha (treatment B) post-emergence
[19] = plants AHAS1 HETO108 / AHAS3 HETO104, 20 g a.i./ha (treatment C) post-emergence
[20] = plants AHAS1 HETO108 / AHAS3 HETO111, 10 g a.i./ha (treatment B) post-emergence
[21] = plants AHAS1 HETO108 / AHAS3 HETO111, 20 g a.i./ha (treatment C) post-emergence
[22] = plants AHAS1 HETO108 / AHAS3 WT, 10 g a.i./ha (treatment B) post-emergence
[23] = plants AHAS1 HETO108 / AHAS3 WT, 20 g a.i./ha (treatment C) post-emergence
[24] = plants AHAS1 HETO112 / AHAS3 HETO111, 10 g a.i./ha (treatment B) post-emergence
[25] = plants AHAS1 HETO112 / AHAS3 HETO111, 20 g a.i./ha (treatment C) post-emergence
[26] = plants AHAS1 HETO112 / AHAS3 WT, 10 g a.i./ha (treatment B) post-emergence
[27] = plants AHAS1 HETO112 / AHAS3 WT, 20 g a.i./ha (treatment C) post-emergence
[28] = plants AHAS1 WT / AHAS3 HETO104, 10 g a.i./ha (treatment B) post-emergence
[29] = plants AHAS1 WT / AHAS3 HETO104, 20 g a.i./ha (treatment C) post-emergence
[30] = plants AHAS1 WT / AHAS3 HETO111, 10 g a.i./ha (treatment B) post-emergence
[31] = plants AHAS1 WT / AHAS3 HETO111, 20 g a.i./ha (treatment C) post-emergence
[32] = plants AHAS1 WT / AHAS3 WT, 10 g a.i./ha (treatment B) post-emergence
[33] = plants AHAS1 WT / AHAS3 WT, 20 g a.i./ha (treatment C) post-emergence

Q: Which “vigor score Av, pre-planting (2, 3 and 4 weeks after treatment)” value (from here on “vigor score Av, pre-planting”) [1, 4] does the source give for `COC(=O)c1csc(C)c1S(=O)(=O)NC(=O)n1nc(OC)n(C)c1=O` [thiencarbazone-methyl, methyl 4-[(4,5-dihydro-3-methoxy-4-methyl-5-oxo-1H-1,2,4-triazol-1-yl)carbonylsulfamoyl]-5-methylthiophene-3-carboxylate] here?
A: The value was 1.3.

Q: And the “vigor score Av, pre-planting” value [1, 5]?
A: Its value is 1.4.

Q: What about the “vigor score Av, pre-planting” value [1, 6] of the same compound?
A: The value was 1.4.

Q: What about the “vigor score Av, pre-planting” value [1, 7] of the same compound?
A: The value was 1.3.

Q: What about the “vigor score Av, pre-planting” value [1, 8] of the same compound?
A: Its value is 5.2.

Q: And the “vigor score Av, pre-planting” value [1, 9]?
A: The value was 4.8.

Q: And the “vigor score Av, pre-planting” value [1, 10]?
A: The value was 5.3.

Q: And the “vigor score Av, pre-planting” value [1, 11]?
A: Its value is 4.4.

Q: And the “vigor score Av, pre-planting” value [1, 12]?
A: The value was 6.1.

Q: What about the “vigor score Av, pre-planting” value [1, 13] of the same compound?
A: The value was 7.6.

Q: And the “vigor score Av, pre-planting” value [1, 14]?
A: The value was 1.4.

Q: And the “vigor score Av, pre-planting” value [1, 15]?
A: Its value is 5.6.

Q: What about the “vigor score Av, pre-planting” value ([1]; Elite parent line treated) of the same compound?
A: Its value is 1.8.

Q: What about the “thiencarbazone-methyl tolerance of plants homozygous for a missense allele and a full knock-out allele, versus missense allele with other AHAS gene homozygous wild-type” value ([1]; pre-planting treatment, greenhouse) of the same compound?
A: The value was “higher”.

Q: And the “vigor score Av, post-emergence (1, 2 and 3 weeks after treatment)” value (shortened to “vigor score Av, post-emergence”) [2, 4]?
A: The value was 1.7.

Q: And the “vigor score Av, post-emergence” value [2, 5]?
A: Its value is 1.7.

Q: What about the “vigor score Av, post-emergence” value [2, 6] of the same compound?
A: Its value is 1.7.

Q: And the “vigor score Av, post-emergence” value [2, 7]?
A: Its value is 1.8.

Q: And the “vigor score Av, post-emergence” value [2, 8]?
A: The value was 3.3.

Q: And the “vigor score Av, post-emergence” value [2, 9]?
A: The value was 3.1.

Q: And the “vigor score Av, post-emergence” value [2, 10]?
A: The value was 3.4.

Q: And the “vigor score Av, post-emergence” value [2, 11]?
A: The value was 3.3.

Q: And the “vigor score Av, post-emergence” value [2, 12]?
A: The value was 3.8.

Q: What about the “vigor score Av, post-emergence” value [2, 13] of the same compound?
A: Its value is 4.7.

Q: And the “vigor score Av, post-emergence” value [2, 14]?
A: The value was 1.7.

Q: And the “vigor score Av, post-emergence” value [2, 15]?
A: The value was 3.6.

Q: What about the “vigor score Av, post-emergence” value ([2]; Elite parent line treated) of the same compound?
A: Its value is 1.8.

Q: And the “thiencarbazone-methyl tolerance of plants homozygous for a missense allele and a full knock-out allele, versus missense allele with other AHAS gene homozygous wild-type” value ([2]; post-emergence spraying, greenhouse)?
A: The value was “higher”.

Q: What about the “phytotoxicity (PPTOX) score, Av” value [3, 16] of the same compound?
A: Its value is 1.00.

Q: And the “vigor1 (VIG1) score, Av” value [3, 16]?
A: The value was 2.33.

Q: What about the “phytotoxicity (PPTOX) score, Av” value [3, 17] of the same compound?
A: Its value is 1.00.

Q: And the “vigor1 (VIG1) score, Av” value [3, 17]?
A: The value was 2.33.

Q: And the “phytotoxicity (PPTOX) score, Av” value [3, 18]?
A: The value was 5.00.

Q: And the “vigor1 (VIG1) score, Av” value [3, 18]?
A: The value was 5.00.

Q: And the “phytotoxicity (PPTOX) score, Av” value [3, 19]?
A: The value was 4.00.

Q: And the “vigor1 (VIG1) score, Av” value [3, 19]?
A: Its value is 4.00.

Q: And the “phytotoxicity (PPTOX) score, Av” value [3, 20]?
A: Its value is 6.67.

Q: What about the “vigor1 (VIG1) score, Av” value [3, 20] of the same compound?
A: Its value is 6.67.

Q: What about the “phytotoxicity (PPTOX) score, Av” value [3, 21] of the same compound?
A: The value was 6.00.

Q: What about the “vigor1 (VIG1) score, Av” value [3, 21] of the same compound?
A: The value was 6.00.

Q: And the “phytotoxicity (PPTOX) score, Av” value [3, 22]?
A: Its value is 6.00 and 5.67.

Q: And the “vigor1 (VIG1) score, Av” value [3, 22]?
A: Its value is 6.00 and 5.67.

Q: What about the “phytotoxicity (PPTOX) score, Av” value [3, 23] of the same compound?
A: The value was 4.33.

Q: What about the “vigor1 (VIG1) score, Av” value [3, 23] of the same compound?
A: Its value is 4.67 and 4.33.

Q: And the “phytotoxicity (PPTOX) score, Av” value [3, 24]?
A: The value was 5.00.

Q: And the “vigor1 (VIG1) score, Av” value [3, 24]?
A: The value was 5.00.

Q: What about the “phytotoxicity (PPTOX) score, Av” value [3, 25] of the same compound?
A: Its value is 4.67.

Q: What about the “vigor1 (VIG1) score, Av” value [3, 25] of the same compound?
A: The value was 4.67.

Q: What about the “phytotoxicity (PPTOX) score, Av” value [3, 26] of the same compound?
A: Its value is 1.00.

Q: And the “vigor1 (VIG1) score, Av” value [3, 26]?
A: Its value is 2.00.

Q: What about the “phytotoxicity (PPTOX) score, Av” value [3, 27] of the same compound?
A: Its value is 1.00.

Q: And the “vigor1 (VIG1) score, Av” value [3, 27]?
A: The value was 1.67.

Q: And the “phytotoxicity (PPTOX) score, Av” value [3, 28]?
A: Its value is 1.00.

Q: What about the “vigor1 (VIG1) score, Av” value [3, 28] of the same compound?
A: Its value is 1.67.

Q: And the “phytotoxicity (PPTOX) score, Av” value [3, 29]?
A: Its value is 1.00.

Q: And the “vigor1 (VIG1) score, Av” value [3, 29]?
A: The value was 1.67.

Q: What about the “phytotoxicity (PPTOX) score, Av” value [3, 30] of the same compound?
A: The value was 5.33 and 5.67.

Q: And the “vigor1 (VIG1) score, Av” value [3, 30]?
A: The value was 5.33.

Q: What about the “phytotoxicity (PPTOX) score, Av” value [3, 31] of the same compound?
A: Its value is 4.67.

Q: And the “vigor1 (VIG1) score, Av” value [3, 31]?
A: The value was 4.67.

Q: What about the “phytotoxicity (PPTOX) score, Av” value [3, 32] of the same compound?
A: Its value is 1.00.

Q: And the “vigor1 (VIG1) score, Av” value [3, 32]?
A: Its value is 1.67.

Q: And the “phytotoxicity (PPTOX) score, Av” value [3, 33]?
A: Its value is 1.00.

Q: What about the “vigor1 (VIG1) score, Av” value [3, 33] of the same compound?
A: Its value is 2.00.
